The subject of series [1] is MCP-1. As to the kind of experiment: MCP-1 production by non-stimulated human umbilical vein endothelial cells, multiplex protein measurement. Type of series: cell-based. As for the experimental part:
(§1) Human umbilical vein endothelial cells were obtained (Clonetics Cell Systems; Cambrex Bio Science Walkersville, Inc., Walkersville, Md.). Approximately 5×10^5 viable cells were seeded in endothelial cell growth-supplemented basal medium (EGM-2-endothelial cell medium-2; Cambrex Bio Science Walkersville, Inc.) and maintained at 37° C. under a 5% carbon dioxide atmosphere per manufacturer's protocol. The culture medium was changed 24 hours after seeding and every 48 hours thereafter until confluence. Cells were then treated with trypsin, seeded in a 48-well culture dish, and incubated under the conditions previously described. Cells used in this Example were from the third passage.
After cells reached 70-80% confluence in the culture dish, they were allowed to become quiescent in unsupplemented, serum-free medium for 24 hours before treatment and then placed in medium containing 2% fetal bovine serum. Atorvastatin (LKT Laboratories Inc., St. Paul, Minn.) was dissolved in dimethylsulfoxide (Sigma-Aldrich, St. Louis, Mo.). Cells were treated for 24 hours with atorvastatin 1-50 μM alone or with atorvastatin plus mevalonate 250 μM (Sigma-Aldrich). Controls were cells cultured without atorvastatin or atorvastatinmevalonate. […] All experiments were performed in duplicate.
After treatment, culture-conditioned media were collected, divided into aliquots, and stored at −80° C. for no longer than 7 days until multiplex measurement of chemokines, cytokines, and angiogenic factors was performed.
The culture-conditioned media protein content of epithelial neutrophil-activating peptide-78 (ENA-78), interleukin-8, (IL-8), monocyte chemotactic protein-1 (MCP-1), interleukin-6 (IL-6), interleukin-10 (IL-10), fibroblast growth factor (FGF), and granulocyte colony-stimulating factor (G-CSF) were measured by means of flow-based immunofluorescence multiplex detection (Fluorokine MAP Human Cytokine Panel; R&D Systems Inc., Minneapolis, Minn.) with the Luminex 100 IS platform (Luminex Corp., Austin, Tex.). Concentrations for each sample were normalized against milligrams of total protein by using a standard bicinchoninic acid protein assay (Pierce Biotechnology, Inc., Rockford, Ill.). Samples were assayed in duplicate.
Standard curves of best fit for each analyte were generated by plotting the median fluorescence intensities of the analyte standards against their known concentrations by using Beadview multiplex data analysis software version 1 (Upstate, Charlottesville, Va.).
Differences in biomolecular concentrations were compared by treatment group by applying one-way analysis of variance and a post-hoc Tukey's test as appropriate. The Jonckheere Terpstra test was performed to assess the trend for differences in biomolecular concentrations across concentrations of atorvastatin. […]

Series [2] concerns IL-10. In words: IL-10 production by non-stimulated human umbilical vein endothelial cells, multiplex protein measurement. Type of series: cell-based. The note with it: atorvastatin 1-50 μM, 24 hours, FIG. 11B. As for the experimental part: as §1, with “passage. […]” for “passage.”
The culture-conditioned media protein content of epithelial neutrophil-activating peptide-78 (ENA-78), interleukin-8, (IL-8), monocyte chemotactic protein-1 (MCP-1), interleukin-6 (IL-6), interleukin-10 (IL-10), fibroblast growth factor (FGF), and granulocyte colony-stimulating factor (G-CSF) were measured by means of flow-based immunofluorescence multiplex detection (Fluorokine MAP Human Cytokine Panel; R&D Systems Inc., Minneapolis, Minn.) with the Luminex 100 IS platform (Luminex Corp., Austin, Tex.). […]

For series [3], the system named is HUVECs. As to the kind of experiment: HUVEC viability, trypan blue cell staining. To be noted: 24 hours of treatment, any dose of AT from 1 uM to 50 uM, FIG. 13. The format is cell-based, human. Here is the method:
Human umbilical vein endothelial cells (HUVECs) (Clonetics Cell Systems; Cambrex Bio Science Walkersville, Inc., Walkersville, USA) were cultured as previously described. Briefly, HUVECs between passes three and four were seeded at a density of 2.5×10^4 cells per cm^2 and cultured to 80% confluence with endothelial cell growth-supplemented medium (EGM-2-endothelial cell medium-2; Cambrex Bio Science Walkersville, Inc.). Once confluent, media was changed to serum free endothelial basal media (EBM-2-endothelial cell medium-2; Cambrex Bio Science Walkersville, Inc.) for 24 hours prior to treatment, in which EBM-2 media supplemented to a 2% FBS concentration was used.
Treatments consisted of atorvastatin calcium (AT; LKT Laboratories Inc., St. Paul, USA) 1-50 μM dissolved in dimethyl sulfoxide (DMSO), IL-1beta, mevalonate, farnesyl pyrophosphate (FPP), and geranylgeranyl pyrophosphate (GGPP) were purchased from Sigma-Aldrich (St. Louis, Mo.), with concentrations of 2 ng/ml, 250 μM, 5 μM, and 5 μM used respectively. All were dissolved in molecular grade water. All final DMSO concentrations were less then 0.1%.
Cell viability was assessed by treating HUVECs with AT 1 μM, 5 μM, 10 μM, 25 μM, and 50 μM using trypan blue cell staining. […]

For `CC(C)c1c(C(=O)Nc2ccccc2)c(-c2ccccc2)c(-c2ccc(F)cc2)n1CC[C@@H](O)C[C@@H](O)CC(=O)O` [atorvastatin], in series [1] (concentrations of atorvastatin less than 50 μM), the “MCP-1 concentrations vs control condition” value was “did not significantly differ”. In addition, the “reduction in MCP-1” value in series [1] (highest concentration of atorvastatin (50 μM), 24 hours) came out at 83%. Moreover, the MCP-1 production in series [1] (highest concentration of atorvastatin (50 μM), 24 hours (control 4556±514)) is on record as 782±105 pg/mg protein. For the same compound, the “treatment effect on IL-10” value in series [2] is “no treatment effect”. Also, the “HUVEC viability compared with control” value in series [3] is on record as “no significant differences”.
